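GI50 is the concentration that inhibits growth by half. TGI is the concentration that stops growth completely.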
Assays:
Test in all cases: inhibition of tumour cell growth, NCI panel, 384-well format
COLO 205 colon = tested on: COLO 205 colon
A549 NSCLC = tested on: A549 NSCLC
NCI-H226 lung = tested on: NCI-H226 lung
MDA-MB-231 breast = tested on: MDA-MB-231 breast
EKVX NSCLC = tested on: EKVX NSCLC
UACC-257 melanoma = tested on: UACC-257 melanoma
HOP-62 NSCLC = tested on: HOP-62 NSCLC
786-0 renal = tested on: 786-0 renal
KM12 colon = tested on: KM12 colon
SK-OV-3 ovarian = tested on: SK-OV-3 ovarian
OVCAR-5 ovarian = tested on: OVCAR-5 ovarian
M14 melanoma = tested on: M14 melanoma
SK-MEL-28 melanoma = tested on: SK-MEL-28 melanoma
ACHN renal = tested on: ACHN renal
SNB-19 CNS = tested on: SNB-19 CNS
CCRF-CEM leukemia = tested on: CCRF-CEM leukemia
T-47D breast = tested on: T-47D breast
SK-MEL-5 melanoma = tested on: SK-MEL-5 melanoma
OVCAR-4 ovarian = tested on: OVCAR-4 ovarian
BT-549 breast = tested on: BT-549 breast
NCI-H460 NSCLC = tested on: NCI-H460 NSCLC
IGROV1 ovarian = tested on: IGROV1 ovarian
NCI-H522 lung = tested on: NCI-H522 lung
SN12C renal = tested on: SN12C renal
HCT-116 colon = tested on: HCT-116 colon
MDA-MB-468 breast = tested on: MDA-MB-468 breast
UACC-62 melanoma = tested on: UACC-62 melanoma
SF-268 CNS = tested on: SF-268 CNS
CAKI-1 renal = tested on: CAKI-1 renal
SNB-75 CNS = tested on: SNB-75 CNS
SF-539 CNS = tested on: SF-539 CNS
NCI-H322M lung = tested on: NCI-H322M lung
LOX IMVI melanoma = tested on: LOX IMVI melanoma
HOP-92 NSCLC = tested on: HOP-92 NSCLC
OVCAR-3 ovarian = tested on: OVCAR-3 ovarian
HCC-2998 colon = tested on: HCC-2998 colon
MOLT-4 leukemia = tested on: MOLT-4 leukemia
NCI-H23 lung = tested on: NCI-H23 lung
RXF 393 renal = tested on: RXF 393 renal
NCI/ADR-RES ovarian = tested on: NCI/ADR-RES ovarian
U251 glioblastoma = tested on: U251 glioblastoma
MDA-MB-435 melanoma = tested on: MDA-MB-435 melanoma
SF-295 CNS = tested on: SF-295 CNS
UO-31 renal = tested on: UO-31 renal
TK-10 renal = tested on: TK-10 renal
HL-60(TB) leukemia = tested on: HL-60(TB) leukemia
A498 renal = tested on: A498 renal
SW-620 colon = tested on: SW-620 colon
RPMI-8226 leukemia = tested on: RPMI-8226 leukemia
PC-3 prostate = tested on: PC-3 prostate
HS 578T breast = tested on: HS 578T breast
MALME-3M melanoma = tested on: MALME-3M melanoma
K-562 leukemia = tested on: K-562 leukemia
DU-145 prostate = tested on: DU-145 prostate
OVCAR-8 ovarian = tested on: OVCAR-8 ovarian
HT29 colon = tested on: HT29 colon
MCF7 breast = tested on: MCF7 breast
HCT-15 colon = tested on: HCT-15 colon

**Q.** What does the source list for `CN1CCN(c2ccc(C(=O)Nc3cc(-c4cccc(NS(=O)(=O)c5ccccc5)c4)[nH]n3)cc2)CC1`?
**A.** GI50 (COLO 205 colon): 891 nM; TGI (COLO 205 colon): 2140 nM; GI50 (A549 NSCLC): 1780 nM; TGI (A549 NSCLC): 3300 nM; GI50 (NCI-H226 lung): 111 nM; TGI (NCI-H226 lung): 11600 nM; GI50 (MDA-MB-231 breast): 1520 nM; TGI (MDA-MB-231 breast): 3300 nM; GI50 (EKVX NSCLC): 2100 nM; TGI (EKVX NSCLC): 4870 nM; GI50 (UACC-257 melanoma): 1780 nM; TGI (UACC-257 melanoma): 3180 nM; GI50 (HOP-62 NSCLC): 1590 nM; TGI (HOP-62 NSCLC): 3310 nM; GI50 ([…]-0 renal): 1560 nM; TGI (786-0 renal): 2980 nM; GI50 (KM12 colon): 25 nM; TGI (KM12 colon): 1380 nM; GI50 (SK-OV-3 ovarian): 1160 nM; TGI (SK-OV-3 ovarian): 2440 nM; GI50 (OVCAR-5 ovarian): 1890 nM; TGI (OVCAR-5 ovarian): 3940 nM; GI50 (M14 melanoma): 1650 nM; TGI (M14 melanoma): 3030 nM; GI50 (SK-MEL-28 melanoma): 2170 nM; TGI (SK-MEL-28 melanoma): 3630 nM; GI50 (ACHN renal): 2150 nM; TGI (ACHN renal): 4660 nM; GI50 (SNB-19 CNS): 2020 nM; TGI (SNB-19 CNS): 4480 nM; GI50 (CCRF-CEM leukemia): 1620 nM; TGI (CCRF-CEM leukemia): 2990 nM; GI50 (T-47D breast): 1370 nM; TGI (T-47D breast): 2690 nM; GI50 (SK-MEL-5 melanoma): 1460 nM; TGI (SK-MEL-5 melanoma): 2790 nM; GI50 (OVCAR-4 ovarian): 1790 nM; TGI (OVCAR-4 ovarian): 4070 nM; GI50 (BT-549 breast): 1170 nM; TGI (BT-549 breast): 2420 nM; GI50 (NCI-H460 NSCLC): 1690 nM; TGI (NCI-H460 NSCLC): 3150 nM; GI50 (IGROV1 ovarian): 628 nM; TGI (IGROV1 ovarian): 1930 nM; GI50 (NCI-H522 lung): 1880 nM; TGI (NCI-H522 lung): 3550 nM; GI50 (SN12C renal): 2440 nM; TGI (SN12C renal): 8740 nM; GI50 (HCT-116 colon): 1660 nM; TGI (HCT-116 colon): 3080 nM; GI50 (MDA-MB-468 breast): 2090 nM; TGI (MDA-MB-468 breast): 3620 nM; GI50 (UACC-62 melanoma): 1800 nM; TGI (UACC-62 melanoma): 3200 nM; GI50 (SF-268 CNS): 1230 nM; TGI (SF-268 CNS): 2700 nM; GI50 (CAKI-1 renal): 1670 nM; TGI (CAKI-1 renal): 3080 nM; GI50 (SNB-75 CNS): 949 nM; TGI (SNB-75 CNS): 2370 nM; GI50 (SF-539 CNS): 838 nM; TGI (SF-539 CNS): 2110 nM; GI50 (NCI-H322M lung): 1930 nM; TGI (NCI-H322M lung): 4220 nM; GI50 (LOX IMVI melanoma): 1620 nM; TGI (LOX IMVI melanoma): 3010 nM; GI50 (HOP-92 NSCLC): 1370 nM; TGI (HOP-92 NSCLC): 2870 nM; GI50 (OVCAR-3 ovarian): 1620 nM; TGI (OVCAR-3 ovarian): 3030 nM; GI50 (HCC-2998 colon): 1470 nM; TGI (HCC-2998 colon): 3010 nM; GI50 (MOLT-4 leukemia): 1200 nM; TGI (MOLT-4 leukemia): 2440 nM; GI50 (NCI-H23 lung): 1910 nM; TGI (NCI-H23 lung): 3750 nM; GI50 (RXF 393 renal): 1240 nM; TGI (RXF 393 renal): 2520 nM; GI50 (NCI/ADR-RES ovarian): > 100000 nM; TGI (NCI/ADR-RES ovarian): > 100000 nM; GI50 (U251 glioblastoma): 1640 nM; TGI (U251 glioblastoma): 3030 nM; GI50 (MDA-MB-435 melanoma): 1960 nM; TGI (MDA-MB-435 melanoma): 3410 nM; GI50 (SF-295 CNS): 1890 nM; TGI (SF-295 CNS): 3400 nM; GI50 (UO-31 renal): 3690 nM; TGI (UO-31 renal): 10400 nM; GI50 (TK-10 renal): 2270 nM; TGI (TK-10 renal): 4560 nM; GI50 (HL-60(TB) leukemia): 2480 nM; TGI (HL-60(TB) leukemia): 3960 nM; GI50 (A498 renal): 2070 nM; TGI (A498 renal): 3530 nM; GI50 (SW-620 colon): 1840 nM; TGI (SW-620 colon): 3330 nM; GI50 (RPMI-8226 leukemia): 1450 nM; TGI (RPMI-8226 leukemia): 2780 nM; GI50 (PC-3 prostate): 2570 nM; TGI (PC-3 prostate): 7410 nM; GI50 (HS 578T breast): 1310 nM; TGI (HS 578T breast): 2600 nM; GI50 (MALME-3M melanoma): 1640 nM; TGI (MALME-3M melanoma): 3010 nM; GI50 (K-562 leukemia): 1450 nM; TGI (K-562 leukemia): 2790 nM; GI50 (DU-145 prostate): 2330 nM; TGI (DU-145 prostate): 4970 nM; GI50 (OVCAR-8 ovarian): 1810 nM; TGI (OVCAR-8 ovarian): 3350 nM; GI50 (HT29 colon): 1520 nM; TGI (HT29 colon): 2930 nM; GI50 (MCF7 breast): 1410 nM; TGI (MCF7 breast): 2920 nM; GI50 (HCT-15 colon): 3500 nM; TGI (HCT-15 colon): 8850 nM

Reference: PubChem BioAssay (NCI)
